One assay addresses T1, recombinant human MER (Homo sapiens, UniProt Q12866).
T1 construct: purchased Invitrogen
T1 sequence (Q12866 21-999): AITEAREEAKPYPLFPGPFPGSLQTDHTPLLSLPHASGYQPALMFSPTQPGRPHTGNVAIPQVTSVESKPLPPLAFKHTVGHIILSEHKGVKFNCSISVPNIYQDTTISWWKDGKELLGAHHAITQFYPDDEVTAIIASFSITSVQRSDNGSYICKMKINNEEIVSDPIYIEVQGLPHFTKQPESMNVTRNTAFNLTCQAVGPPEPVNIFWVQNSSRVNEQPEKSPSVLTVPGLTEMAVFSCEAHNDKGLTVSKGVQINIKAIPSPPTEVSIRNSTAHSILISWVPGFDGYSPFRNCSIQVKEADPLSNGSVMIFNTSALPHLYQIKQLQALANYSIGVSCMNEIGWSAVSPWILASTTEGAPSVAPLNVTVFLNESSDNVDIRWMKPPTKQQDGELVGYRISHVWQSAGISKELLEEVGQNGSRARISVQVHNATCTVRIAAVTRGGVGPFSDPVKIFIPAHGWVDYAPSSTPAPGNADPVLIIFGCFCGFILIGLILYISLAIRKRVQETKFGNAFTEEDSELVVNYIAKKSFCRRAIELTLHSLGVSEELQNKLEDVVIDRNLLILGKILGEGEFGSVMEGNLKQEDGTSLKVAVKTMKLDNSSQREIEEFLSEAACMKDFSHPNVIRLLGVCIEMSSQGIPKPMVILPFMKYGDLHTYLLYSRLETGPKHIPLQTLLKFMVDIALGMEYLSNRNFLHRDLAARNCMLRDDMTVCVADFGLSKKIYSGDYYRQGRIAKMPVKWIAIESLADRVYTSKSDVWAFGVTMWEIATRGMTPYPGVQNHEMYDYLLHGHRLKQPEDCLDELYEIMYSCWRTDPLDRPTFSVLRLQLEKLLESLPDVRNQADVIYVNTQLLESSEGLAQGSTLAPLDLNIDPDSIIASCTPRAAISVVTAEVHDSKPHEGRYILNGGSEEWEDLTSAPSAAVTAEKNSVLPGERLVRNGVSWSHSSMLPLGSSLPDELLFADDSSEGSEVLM
Nature of the assay: HTRF KinEASE-TK biochemical potency, MER. The note with it: 1 nM MER, 700 μM ATP. Put shortly: (§1)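 Enzyme preincubated with compound 1 h at RT; final 5 nM AXL or 1 nM TYRO3/MER, 800 nM TK substrate-biotin, 700 μM ATP, HEPES pH 7.4, MgCl2, 1% DMSO, 2 h at RT. HTRF 665/620 ratio read after streptavidin-XL665/cryptate antibody detection; percent activity relative to DMSO and pre-stopped controls.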
In general terms: Time-resolved FRET reads energy transfer from a long-lived donor to a nearby acceptor.

A further assay deals with T2, recombinant human TYRO3 (Homo sapiens, UniProt Q06418).
T2 construct: purchased Invitrogen
T2 sequence (Q06418 41-890): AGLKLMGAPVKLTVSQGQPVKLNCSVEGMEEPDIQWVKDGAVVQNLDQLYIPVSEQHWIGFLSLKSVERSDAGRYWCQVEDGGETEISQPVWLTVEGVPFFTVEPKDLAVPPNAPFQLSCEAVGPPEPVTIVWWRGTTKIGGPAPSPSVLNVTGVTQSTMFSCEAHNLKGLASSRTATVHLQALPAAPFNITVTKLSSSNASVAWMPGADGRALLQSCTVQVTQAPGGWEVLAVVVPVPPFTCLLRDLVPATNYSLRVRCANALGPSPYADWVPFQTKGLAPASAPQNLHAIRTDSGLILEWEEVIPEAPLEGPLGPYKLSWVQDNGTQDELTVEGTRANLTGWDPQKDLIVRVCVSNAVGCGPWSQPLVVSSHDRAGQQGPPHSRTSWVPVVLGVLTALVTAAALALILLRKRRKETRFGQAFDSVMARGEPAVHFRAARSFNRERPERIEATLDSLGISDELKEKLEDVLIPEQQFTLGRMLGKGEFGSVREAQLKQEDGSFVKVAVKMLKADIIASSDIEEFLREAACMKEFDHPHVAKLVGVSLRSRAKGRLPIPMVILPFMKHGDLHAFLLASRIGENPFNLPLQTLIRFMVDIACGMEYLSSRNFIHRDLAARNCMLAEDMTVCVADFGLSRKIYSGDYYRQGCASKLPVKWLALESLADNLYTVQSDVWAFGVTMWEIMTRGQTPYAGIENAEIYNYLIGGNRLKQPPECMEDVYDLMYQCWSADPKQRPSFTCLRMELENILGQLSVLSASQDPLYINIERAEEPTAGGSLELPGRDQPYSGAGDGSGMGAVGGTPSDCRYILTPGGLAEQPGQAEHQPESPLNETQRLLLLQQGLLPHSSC
Kind of assay: HTRF KinEASE-TK biochemical potency, TYRO3. The note with it: 1 nM TYRO3, 700 μM ATP. Put shortly:
as §1

One may read the IC50 as the concentration needed to halve the response being measured. As to `C[C@H]1CCCN1C1CCc2ccc(-c3cnc4[nH]nc(-c5ccc6c(c5)OCCNC6=O)c4c3)cc2CC1` (stereo partly drawn) [Example 43, 8-(5-{7-[(2S)-2-Methylpyrrolidin-1-yl]-6,7,8,9-tetrahydro-5H-benzo[7]annulen-2-yl}-1H-pyrazolo[3,4-b]pyridin-3-yl)-2,3,4,5-tetrahydro-1,4-benzoxazepin-5-one], the IC50 at recombinant human MER and at recombinant human TYRO3 was less than 100 nM throughout.

Consider `C[C@@H]1CCCN1C1CCc2ccc(-c3cnc4[nH]nc(-c5ccc6c(c5)OCCNC6=O)c4c3)cc2CC1` (stereo partly drawn) [Example 44, 8-(5-{7-[(2R)-2-Methylpyrrolidin-1-yl]-6,7,8,9-tetrahydro-5H-benzo[7]annulen-2-yl}-1H-pyrazolo[3,4-b]pyridin-3-yl)-2,3,4,5-tetrahydro-1,4-benzoxazepin-5-one], for which the IC50 at recombinant human MER and on recombinant human TYRO3 was less than 100 nM each time.

On to `O=C1NCCOc2cc(-c3n[nH]c4ncc(-c5ccc6c(c5)CCC(N[C@H]5CCOC5)CC6)cc34)ccc21` (stereo partly drawn) [Example 45, 8-[5-(7-{[(3S)—Oxolan-3-yl]amino}-6,7,8,9-tetrahydro-5H-benzo[7]annulen-2-yl)-1H-pyrazolo[3,4-b]pyridin-3-yl]-2,3,4,5-tetrahydro-1,4-benzoxazepin-5-one], for which the IC50 on recombinant human MER and at recombinant human TYRO3 was less than 100 nM in each case.

Turning to `O=C1NCCOc2cc(-c3n[nH]c4ncc(-c5ccc6c(c5)CCC(N[C@@H]5CCOC5)CC6)cc34)ccc21` (stereo partly drawn) [Example 46, 8-[5-(7-{[(3R)—Oxolan-3-yl]amino}-6,7,8,9-tetrahydro-5H-benzo[7]annulen-2-yl)-1H-pyrazolo[3,4-b]pyridin-3-yl]-2,3,4,5-tetrahydro-1,4-benzoxazepin-5-one], the IC50 on recombinant human MER and on recombinant human TYRO3 was less than 100 nM in each case.

For `O=C1NCCOc2cc(-c3n[nH]c4ncc(-c5ccc6c(c5)CCC(N5CCOCC5)CC6)cc34)ccc21` (centres unmarked) [Example 47, 8-{5-[7-(Morpholin-4-yl)-6,7,8,9-tetrahydro-5H-benzo[7]annulen-2-yl]-1H-pyrazolo[3,4-b]pyridin-3-yl}-2,3,4,5-tetrahydro-1,4-benzoxazepin-5-one], the IC50 at recombinant human MER and at recombinant human TYRO3 was less than 100 nM in each case.

As for `O=C1NCCOc2cc(-c3n[nH]c4ncc(-c5ccc6c(c5)CCC(N5CCNCC5)CC6)cc34)ccc21` (centres unmarked) [Example 48, 8-{5-[7-(Piperazin-1-yl)-6,7,8,9-tetrahydro-5H-benzo[7]annulen-2-yl]-1H-pyrazolo[3,4-b]pyridin-3-yl}-2,3,4,5-tetrahydro-1,4-benzoxazepin-5-one], the IC50 on recombinant human MER and on recombinant human TYRO3 was less than 100 nM each time.

Consider `O=C1NCCOc2cc(-c3n[nH]c4ncc(-c5ccc6c(c5)CCC(N5CCC[C@@H]5CO)CC6)cc34)ccc21` (stereo partly drawn) [Example 49, 8-(5-{7-[(2R)-2-(Hydroxymethyl)pyrrolidin-1-yl]-6,7,8,9-tetrahydro-5H-benzo[7]annulen-2-yl}-1H-pyrazolo[3,4-b]pyridin-3-yl)-2,3,4,5-tetrahydro-1,4-benzoxazepin-5-one], for which the IC50 on recombinant human MER and on recombinant human TYRO3 was less than 100 nM each time.

As to `O=C1NCCOc2cc(-c3n[nH]c4ncc(-c5ccc6c(c5)CCC(N5CCC[C@H]5CO)CC6)cc34)ccc21` (stereo partly drawn) [Example 50, 8-(5-{7-[(2S)-2-(Hydroxymethyl)pyrrolidin-1-yl]-6,7,8,9-tetrahydro-5H-benzo[7]annulen-2-yl}-1H-pyrazolo[3,4-b]pyridin-3-yl)-2,3,4,5-tetrahydro-1,4-benzoxazepin-5-one], the half-inhibitory concentration (IC50) on recombinant human MER and on recombinant human TYRO3 was less than 100 nM in each case.

On to `O=C1NCCOc2cc(-c3n[nH]c4ncc(-c5ccc6c(c5)CCC(N5CC[C@@H](O)C5)CC6)cc34)ccc21` (stereo partly drawn) [Example 51, 8-(5-(7-((R)-3-Hydroxypyrrolidin-1-yl)-6,7,8,9-tetrahydro-5H-benzo[7]annulen-2-yl)-1H-pyrazolo[3,4-b]pyridin-3-yl)-3,4-dihydrobenzo[f][1,4]oxazepin-5(2H)-one], for which the IC50 on recombinant human MER was 100 to 1000 nM; at recombinant human TYRO3, less than 100 nM.

Consider `O=C1NCCOc2cc(-c3n[nH]c4ncc(-c5ccc6c(c5)CCC(N5CCC5)CC6)cc34)ccc21` (centres unmarked) [Example 52, 8-(5-(7-(Azetidin-1-yl)-6,7,8,9-tetrahydro-5H-benzo[7]annulen-2-yl)-1H-pyrazolo[3,4-b]pyridin-3-yl)-3,4-dihydrobenzo[f][1,4]oxazepin-5(2H)-one], for which the IC50 at recombinant human MER and at recombinant human TYRO3 was less than 100 nM in each case.

`O=C1NCCOc2cc(-c3n[nH]c4ncc(-c5ccc6c(c5)CCNCC6)cc34)ccc21` [Example 53, 8-(5-(2,3,4,5-Tetrahydro-1H-benzo[d]azepin-7-yl)-1H-pyrazolo[3,4-b]pyridin-3-yl)-3,4-dihydrobenzo[f][1,4]oxazepin-5(2H)-one]: the IC50 on recombinant human MER and at recombinant human TYRO3 was less than 100 nM throughout.

In the case of `O=C1NCCOc2cc(-c3n[nH]c4ncc(-c5ccc6c(c5)CCNC6)cc34)ccc21` [Example 54, 8-(5-(1,2,3,4-Tetrahydroisoquinolin-6-yl)-1H-pyrazolo[3,4-b]pyridin-3-yl)-3,4-dihydrobenzo[f][1,4]oxazepin-5(2H)-one], the IC50 on recombinant human MER is 100 to 1000 nM; at recombinant human TYRO3, less than 100 nM.

In the case of `O=C1NCCOc2cc(-c3n[nH]c4ncc(-c5ccc6c(c5)CNCC6)cc34)ccc21` [Example 55, 8-(5-(1,2,3,4-Tetrahydroisoquinolin-7-yl)-1H-pyrazolo[3,4-b]pyridin-3-yl)-3,4-dihydrobenzo[f][1,4]oxazepin-5(2H)-one], the IC50 was 100 to 1000 nM at recombinant human MER and less than 100 nM on recombinant human TYRO3.

As to `C[C@@H]1CCCN1C1CCc2cc(F)c(-c3cnc4[nH]nc(-c5ccc6c(c5)OCCNC6=O)c4c3)cc2CC1` (stereo partly drawn) [Example 58, 8-(5-{3-Fluoro-7-[(2R)-2-methylpyrrolidin-1-yl]-6,7,8,9-tetrahydro-5H-benzo[7]annulen-2-yl}-1H-pyrazolo[3,4-b]pyridin-3-yl)-2,3,4,5-tetrahydro-1,4-benzoxazepin-5-one], the IC50 on recombinant human MER and at recombinant human TYRO3 was less than 100 nM each time.

As to `C[C@@H]1CNC(=O)c2ccc(-c3n[nH]c4ncc(-c5ccc6c(c5)CCC(N5CCC[C@H]5C)CC6)cc34)cc2O1` (stereo partly drawn) [Example 59, (2R)-2-Methyl-8-(5-{7-[(2R)-2-methylpyrrolidin-1-yl]-6,7,8,9-tetrahydro-5H-benzo[7]annulen-2-yl}-1H-pyrazolo[3,4-b]pyridin-3-yl)-2,3,4,5-tetrahydro-1,4-benzoxazepin-5-one], the concentration for half-maximal inhibition (IC50) on recombinant human MER and at recombinant human TYRO3 was less than 100 nM in each case.

On to `C[C@@H]1CCCN1C1CCc2ccc(-c3cnc4[nH]nc(-c5ccc6c(c5F)OCCNC6=O)c4c3)cc2CC1` (stereo partly drawn) [Example 60, 9-Fluoro-8-(5-{7-[(2R)-2-methylpyrrolidin-1-yl]-6,7,8,9-tetrahydro-5H-benzo[7]annulen-2-yl}-1H-pyrazolo[3,4-b]pyridin-3-yl)-2,3,4,5-tetrahydro-1,4-benzoxazepin-5-one], for which the IC50 at recombinant human MER and on recombinant human TYRO3 was less than 100 nM in each case.

For the origin of these results see patent US20240226115A1, “AXL INHIBITOR COMPOUNDS” (ARCUS BIOSCIENCES, INC., priority 2021, published 2024).
